# Test system: plasma protein
# Type: in vitro ADME, dog
# Description: One dialysis device was used in an equilibrium dialysis study to measure plasma protein binding of warfarin. A 0.1 M warfarin solution was prepared by dissolving 0.154 g of warfarin in 5 ml of phosphate buffered salts (PBS). The pH was adjusted with 400 Tl of 6 M NaOH to a final volume of 5.761 ml and a final concentration of 86.8 mM. The warfarin solution was then diluted to 1 mM before adding to the plasma solution. 2.2 Tl of 1 mM warfarin was added to 2.2 ml plasma to make 1 TM final concentration of warfarin in the plasma. 1 ml of the warfarin-containing dog plasma was added inside the cylindrical membrane of each dialysis device and 1 ml of PBS to outside of the membrane. The filled device was placed in a 37° C. incubator with gentle shaking 100 Tl samples were withdrawn separately from the plasma and the buffer chambers at 0.5, 1, 2, 3, and 4 h intervals. To the plasma sample was added 100 μl of blank buffer. To the buffer sample was added 100 μl of blank plasma. After mixing, 50 μl of the plasma sample was withdrawn. To the plasma sample (50 μl) was added 450 μl of 1:1 ratio of plasma/buffer solution to make a 10-fold dilution. The sample from the buffer was not diluted. 200 μl acetonitrile was added to 200 μl each of the samples from plasma and the buffer. The mixtures were vortexed and then centrifuged at 13,000 rpm for 3 min. The resulting extracts were analyzed using an API-40003 LC/MS/MS system (Applied Biosciences/MDS SCIEX). […] The experiment was conducted in duplicate.
smiles,measurement,setting,value
CC(=O)CC(c1ccccc1)c1c(O)c2ccccc2oc1=O (stereo not drawn) [warfarin],consistency of equilibrium curve (time to equilibrium),,≤ 1 h
same,dialysis reached equilibrium state (time),,≤ 30 min
same,ratio of protein binding,"dog, 1 µM",~99%

# Source: US8034242B2, “Dialysis device” (Linden Technologies, Inc., priority 2004, dated 2011)
